Results reported in US4865840A, “Topical compositions containing selenoamino acids for the prevention of ultraviolet radiation-induced skin damage” (priority 1987, dated 1989).

Key:
[1] = format: in vivo; settings: 100 λ of 0.02% L-selenomethionine oil-in-water lotion, mice
From the text: (§1) During the treatment, the BALB-C mice were shaved on the back one per week. 100 λ of a composition according to the invention in the form of an oil-in-water emulsion location containing 0.02% L-selenomethionine was applied three times a week to the backs and ears of the mice for a period of one week prior to beginning irradiation with ultraviolet light. The lotion carrier was formulated from an oil phase containing 21/2% polypropylene glycol-3-myristyl ether, 2% squalane, 0.5% safflower oil, 1% Myrj 52S emulsifier, 0.75% cetyl alcohol, 0.3% SPAN-60, 6.5% Amercol L101, 0.5% Lanocerin, 1% glyceral monostearate, 0.1% preservative, 1% Silicone 200, 1% stearic acid, and 0.5% isostearic acid; and an aqueous phase containing 68.5% distilled water, 0.75% triethanolamine, 5% propylene glycol, 0.3% preservative, 0.1% allantoin, 0.4% Germal II dissolved in 2% water, and 5% of Carbopol 941 (2.5% solution). Each 100 λ application of the composition penetrated the skin within a period of ten minutes. The composition continued to be applied thirty minutes before each thrice weekly irradiation.

[2] = system: UV irradiated BALB-C mice (skin cancers); assay: clinically detectable skin tumors and mortality in UV irradiated and unirradiated BALB-C mice; format: in vivo, BALB-C female mice
From the text: (§2) To determine the effectiveness of selenium supplementation in the form of topical application and oral administration of L-selenomethionine in providing protection for ultraviolet radiation-induced skin damage, 120 BALB-C female mice and 40 female Skh:2 hairless, pigmented, dark-eyed mice were obtained and separated into treatment groups as follows:
as §1
(§3) Maintenance exposure times for the BALB-C mice was 50 minutes, while for the Skh:2 mice it was 15 minutes. Irradiation with four Westinghouse FS40 sunlamps was begun at 5 minute exposures, however, and increased by 5 minutes per session for the BALB-C mice and by 2.5 minutes per session for the Skh:2 mice until the respective maintenance exposure level for each type of mouse was reached. The maintenance dose of UV radiation for the BALB-C mice was 0.58 Joules/sq. cm./exposure and for the Skh:2 mice, 0.24 Joules/s. cm./exposure. This irradiation was continued for 28 weeks for the BALB-C mice (about 41 joules/sq. cm. total) and 24 weeks for the Skh:2 mice (about 15 joules/sq. cm. total).
(§4) To evaluate the effectiveness of the selenium supplementation in protecting against skin cancers and the relative merits of the claimed composition, the total number of clinically detectable skin cancers in each group was counted.
Tumors greater than 5 mm in size were also considered, but the observed results were inconclusive due to the complicating effect of mortality in irradiated/non-selenium supplemented mice.

[3] = parameters: species or system KH2 (Skh:2) mice; settings: mouse, in vivo
From the text: as §2
as §1, with “Each 100 λ application of the composition penetrated the skin within a period of ten minutes. The composition continued to be applied thirty minutes before each thrice weekly irradiation.” left out
(§5) Throughout the studies, the weights of the mice and the total feed and water intake were monitored.

[4] = system: ultraviolet radiation-induced skin damage; assay: protection from UV radiation-induced skin damage (inflammation, i.e. sunburn; skin cancers); format: in vivo
From the text: (§6) This is illustrated in Table 6, where the pigmentation of selenium supplemented mice is reduced.

[5] = absorption into treated human skin; format: in vivo; settings: topical
From the text: Topical application of selenoamino acid compositions in accordance with the invention provides a different type of protection than that afforded by conventional sunscreens, such as those containing p-amino benzoic acid, because the selenium is actually absorbed into treated human skin within a period of less than fifteen minutes. Thus, unlike a superficial sunscreen, the protective effect of the selenomethionine is not washed off by, e.g., swimming or sweating. Thus, frequent reapplication is not required to maintain protection, as is the case with known sunscreen products.

[6] = parameters: species or system BALBC mice; settings: mouse, in vivo, po
From the text: as §2
as §1, with “Each 100 λ application of the composition penetrated the skin within a period of ten minutes. The composition continued to be applied thirty minutes before each thrice weekly irradiation.” left out
as §5

superoxide dismutase = assay: hepatic activity of superoxide dismutase (SOD); format: in vivo, BALBc mice; settings: 39 weeks, pH 10.2
Procedure: (§7) Since selenium is a co-factor for a free-radical quenching enzyme, glutathione peroxidase, the level of two hepatic free-radical quenching enzymes, selenium dependent glutathione peroxidase and superoxide dismutase were also tested.
^1 SOD was measured by the inihibition of the spontaneous oxidation o
epinephrine at pH 10.2; 1 EU = 50% inhibition.

in vivo = assay: in vivo; parameters: species or system BALBc mice; settings: mouse; for Liver Se / Ventral skin Se / dorsal skin Se: 6552 h
From the text: as §2, §1, §3
(§8) After 12 weeks, 6 irradiated and 4 non-irradiated BALB-C mice were sacrificed, and at 39 weeks the remaining BALB-C mice were sacrificed. The liver and skin selenium levels were determined.

[7] = selenium levels in skin, plasma/serum and liver after topical application (general statement)
[8] = tissue Se in BALBC mice after 3 months; settings: mouse, in vivo; for concentration at 2190 h: tissue Se
From the text: as §2, §1, §3, §8

[9] = system: selenium dependent glutathione peroxidase; assay: hepatic activity of Se-dependent glutathione peroxidase (SeGSHpx); format: in vivo, BALBC mice; settings: for liver SeGSHpx: 3 months, mean ± SEM; for SeGSHpx: hepatic, 39 weeks
From the text: as §2, §1, §3, §7

[10] = in vivo
[11] = system: pigmentation of Skh:2 mice; assay: Pigmentation of Skh:2 mice after exposure to UV-irradiation; format: in vivo; settings: for Pigmentation score: +4 = dark pigmentation, 0 = no pigmentation
From the text: as §2, §1, §3, §6

[12] = system: UV irradiated Skh:2 mice (skin cancers); assay: clinically detectable skin tumors in UV irradiated Skh:2 mice; format: in vivo, female Skh:2 hairless, pigmented mice
From the text: as §2
During the treatment, the BALB-C mice were shaved on the back one per week. 100 λ of a composition according to the invention in the form of an oil-in-water emulsion location containing 0.02% L-selenomethionine was applied three times a week to the backs and ears of the mice for a period of one week prior to beginning irradiation with ultraviolet light. […]
as §4

[13] = toxicity in selenium treated mice (hepatic enzymes, alkaline phosphatase); format: in vivo
[14] = topical; cited from earlier work
[15] = system: UV-induced skin cancer in hairless mice; settings: oral, cited from earlier work
[16] = unirradiated BALB-C, groups 4-6

## C[Se]CC[C@H](N)C(=O)O [L-selenomethionine]
[1]
  time in which the composition penetrated the skin: ten
[2]; irradiated BALB-C, groups 1-3, FIG. 3
  UV-induced mortality: clear reduction in UV-induced mortality
[2]; irradiated BALB-C, topical and oral, FIGS. 1, 2
  protection against skin cancers (tumors over 3 mm; animals with tumors): comparable protection against skin cancers
[2]; irradiated BALB-C, complicated by mortality of non-supplemented mice
  tumors greater than 5 mm: inconclusive
[2]; [16]
  deaths during the test period: none died
  tumors observed during the experimental period: no tumors observed
[3]
  Feed Intake: 496.5 ± 31.1 g/mouse
  Water Intake: 594.6 ± 43.0 g/mouse
[4]; topical
  protection against less severe UV radiation-induced damage (inflammation i.e. sunburn and pigmentation): observed to protect the skin against less severe types of ultraviolet radiation-induced damage such as inflammation i.e. sunburn and pigmentation
[4]; topical application
  incidence of skin cancers following exposure to ultraviolet radiation: significantly reduce the incidence of skin cancers
[5]
  time in which selenium is absorbed into treated human skin: less than fifteen
[6]
  effect on feeding habits: little effect on the feeding habits of the mice
Superoxide dismutase; UV +, d.water, n = 20, 1 EU = 50% inhibition of epinephrine oxidation
  SOD: 243 ± 67 EU/g
Superoxide dismutase; UV +, topical, n = 13, 1 EU = 50% inhibition of epinephrine oxidation
  SOD: 181 ± 51 EU/g
Superoxide dismutase; UV -, d.water, n = 4, 1 EU = 50% inhibition of epinephrine oxidation
  SOD: 109 ± 43 EU/g
Superoxide dismutase; UV -, topical, n = 4, 1 EU = 50% inhibition of epinephrine oxidation
  SOD: 88 ± 34 EU/g
In vivo; po
  Liver Se: 1.674 ± .137 ppm
  Ventral skin Se: .521 ± .018 ppm
  dorsal skin Se: .432 ± .023 ppm
In vivo; po, Liver Se
  concentration at 6552 h: 1560 ± 84 ng/g
In vivo; po, Ventral skin Se
  concentration at 6552 h: 508 ± 26 ng/g
In vivo; po, dorsal skin Se
  concentration at 6552 h: 562 ± 40 ng/g
In vivo; topical or ocular
  Liver Se: 1.481 ± .156 ppm
  Ventral skin Se: .777 ± .069 ppm
  dorsal skin Se: 2.255 ± .582 ppm
In vivo; topical or ocular, Liver Se
  concentration at 6552 h: 1420 ± 150 ng/g
In vivo; topical or ocular, Ventral skin Se
  concentration at 6552 h: 843 ± 76 ng/g
In vivo; topical or ocular, dorsal skin Se
  concentration at 6552 h: 2010 ± 190 ng/g
[7]
  toxicity: without toxicity
[8]
  selenium levels in the localized part of the skin treated: preferential increase in selenium levels in the localized part of the skin actually treated
  selenium levels in the treated skin: substantially enhanced selenium levels in the treated skin
[8]; po, 2190 h
  tissue Se, dorsal skin: .578 ± .061 g/g
  tissue Se, ventral skin: .666 ± .046 g/g
[8]; po, dorsal skin
  concentration at 2190 h: 913 ± 74 ng/g
[8]; po, liver
  concentration at 2190 h: 1600 ± 186 ng/g
[8]; po, ventral skin
  concentration at 2190 h: 728 ± 28 ng/g
[8]; topical or ocular, dorsal skin
  concentration at 2190 h: 4520 ± 568 ng/g
[8]; topical or ocular, liver
  concentration at 2190 h: 2240 ± 353 ng/g
[8]; topical or ocular, ventral skin
  concentration at 2190 h: 1860 ± 193 ng/g
[9]; UV +, drinking water, n = 6
  liver SeGSHpx: 125.69 ± 14.59 nmoles NADPH/min/mg
[9]; UV +, topical, n = 6
  liver SeGSHpx: 124.15 ± 10.51 nmoles NADPH/min/mg
[9]; UV -, drinking water, n = 4
  liver SeGSHpx: 141.49 ± 18.71 nmoles NADPH/min/mg
[9]; UV -, topical, n = 4
  liver SeGSHpx: 160.18 ± 17.36 nmoles NADPH/min/mg
  SeGSHpx: 83.30 ± 20.83 nmoles NADPH/mg-min
[9]; UV +, d.water, n = 20
  SeGSHpx: 114.91 ± 12.20 nmoles NADPH/mg-min
[9]; UV +, topical, n = 13
  SeGSHpx: 85.97 ± 9.92 nmoles NADPH/mg-min
[9]; UV -, d.water, n = 4
  SeGSHpx: 57.98 ± 10.82 nmoles NADPH/mg-min
[10]
  selenium concentration in the skin in the area of application: higher than that attained using a comparable oral dosage of selenium
  selenium levels in the plasma and liver: enhanced levels of selenium in the plasma and liver
  selenium levels in the skin: significantly enhanced levels of selenium in the skin
  selenium levels in untreated skin, serum and liver: comparable to those in animal receiving oral doses of selenium
[11]; oral, week 7, no selenium 3.3
  Pigmentation score: 1.7
[11]; oral, week 12, no selenium 3.5
  Pigmentation score: 2.5
[11]; oral, week 16, no selenium 3.6
  Pigmentation score: 2.6
[11]; selenium supplemented mice, Table 6
  pigmentation: reduced
[11]; topical, week 7, no selenium 3.3
  Pigmentation score: 2.3
[11]; topical, week 12, no selenium 3.5
  Pigmentation score: 2.7
[11]; topical, week 16, no selenium 3.6
  Pigmentation score: 2.6
[12]; irradiated Skh:2, topical and oral, FIGS. 4, 5
  protection against skin cancers (tumors over 3 mm; animals with tumors): comparable protection against skin cancers
[12]; irradiated Skh:2, control mortality a complicating factor
  observations based upon 5 mm tumors: superior in the selenium-supplemented mice
[13]
  toxicity: no evidence of toxicity

## S=[Se]=S [Selenium sulfide, selenium sulfide]
[14]
  skin penetration / selenium levels in the serum or liver: does not penetrate the skin to give increased levels of selenium in the serum or liver

## O=[Se](O)O [sodium selenite]
[15]; decreased weight gain relative to controls
  animal growth rate: moderate inhibition of animal growth rate
[15]
  protection against UV-induced skin cancer: dose-dependent selenium protection against UV-induced skin cancer
  resistance to acute and sub-acute effects of UV radiation (inflammation and pigmentation): more resistant to the acute and sub-acute effects of UV radiation
